The target of assay [1] is T1, adenylate kinase (AdK) (Escherichia coli, UniProt P69441, P177A).
T1 construct: full-length, no tag mentioned; pEAK-91 vector, AdK promotor, BL21(DE3); Blue Sepharose and size exclusion
Put plainly: isothermal titration calorimetry, single-site fit. It is filed as binding. Particulars: 30 mM MOPS, 50 mM NaCl, pH 7.0; measured at 15, 25, 35 and 45 °C. For orientation: In ITC the heat of successive injections is recorded.

In assay [2] the target is T2, adenylate kinase (AdK) (Escherichia coli, UniProt P69441).
T2 construct: full-length, no tag mentioned; pEAK-91 vector, AdK promotor, BL21(DE3); Blue Sepharose and size exclusion
Put plainly: isothermal titration calorimetry, single-site fit. It is filed as binding. To be noted: 30 mM MOPS, 50 mM NaCl, pH 7.0; measured at 15, 25, 35 and 45 °C.

The target of assay [3] is T3, adenylate kinase (AdK) (Escherichia coli, UniProt P69441, Y171W).
T3 construct: full-length, no tag mentioned; pEAK-91 vector, AdK promotor, BL21(DE3); Blue Sepharose and size exclusion
Put plainly: isothermal titration calorimetry, single-site fit. It is filed as binding.

Assay [4] concerns the target T2, adenylate kinase (AdK). In words: NMR spectra of the ADP-saturated enzyme. It is filed as binding. To be noted: 30 mM MOPS, 50 mM NaCl, pH 7.0; 25 °C.
For assay [5], the target named is T2, adenylate kinase (AdK). Put plainly: coupled spectroscopic assay, […] nm (NADH). It is filed as biochemical. To be noted: 0.3 mM AMP, 2 mM MgCl2, 100 mM Tris, 80 mM KCl, pH 7.5; 15, 25, 35 and 45 °C.

3 molecules from paper PMC4506515, “Structural basis for catalytically restrictive dynamics of a high-energy enzyme state” (Nature Communications, 2015) can be followed below.

SMILES strings stand for the structures.

T2 sequence (P69441 whole entry): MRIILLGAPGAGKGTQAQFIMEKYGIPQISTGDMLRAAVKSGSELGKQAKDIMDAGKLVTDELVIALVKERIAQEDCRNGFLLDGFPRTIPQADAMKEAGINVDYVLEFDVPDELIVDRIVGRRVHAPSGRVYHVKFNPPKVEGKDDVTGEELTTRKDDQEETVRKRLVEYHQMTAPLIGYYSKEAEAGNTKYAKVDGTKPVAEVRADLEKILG
T1 sequence (P69441 whole entry P177A): as the sequence (P69441 whole entry) above, with P177A counted along it
T3 sequence (P69441 whole entry Y171W): as the sequence (P69441 whole entry) above, with Y171W counted along it

`Nc1ncnc2c1ncn2[C@@H]1O[C@H](COP(=O)(O)OP(=O)(O)OP(=O)(O)OP(=O)(O)OP(=O)(O)OC[C@H]2O[C@@H](n3cnc4c(N)ncnc43)[C@H](O)[C@@H]2O)[C@@H](O)[C@H]1O` [Ap5a, P1,P5-di(adenosine-5′)pentaphosphate]: the KD result was “KD values for the wild type, P177A and Y171W variants” at adenylate kinase (AdK) [1]; “KD values for the wild type, P177A and Y171W variants” on adenylate kinase (AdK) [2]. Moreover, the Kd on adenylate kinase (AdK) [3] was found to be 0.25 ± 0.06 µM.

Regarding `Nc1ncnc2c1ncn2[C@@H]1O[C@H](COP(=O)(O)OP(=O)(O)O)[C@@H](O)[C@H]1O` [ADP], the “NMR spectra of the ADP-saturated enzyme” value on adenylate kinase (AdK) [4] is “wild-type AdK in complex with saturating concentrations of the natural substrate ADP”.

On to `Nc1ncnc2c1ncn2[C@@H]1O[C@H](COP(=O)(O)OP(=O)(O)OP(=O)(O)O)[C@@H](O)[C@H]1O` [ATP], for which, at adenylate kinase (AdK) [5], the KM result is “ATP affinity, KM, for the used spectroscopic assay”.

For orientation: Kd means the free concentration of one partner at which half of the binding sites on the other are occupied at equilibrium, for simple one-to-one binding. Lower therefore signals higher affinity.
